These results are taken from ChEMBL document CHEMBL1201862, “PubChem BioAssay data set” (2004).

Test systems include M14; SF-268; RXF 393; UO-31; OVCAR-8; MDA-N; MDA-MB-435; RPMI-8226; HL-60; PC-3; OVCAR-5; DU-145; NCI-H522; A549; NCI-H226; HOP-92; HCT-15; COLO 205; BT-549; UACC-257.
Experiment in all cases: growth of human tumour cells (NCI), 48 h

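Cultured in 96-well plates, cells were exposed to test compound for 48 hours across five concentrations. Here, GI50 denotes the concentration required for 50% inhibition of growth.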 The source made the active and inactive calls. No stated cut-off is given here; in the data, active = GI50 up to about 1.1 µM and inactive = higher.

As for `COC(=O)c1cc2c(cc1CC(Cc1ccc3c(c1)CCCC3)C(=O)OC)CCCC2` (configuration not stated), the GI50 in the assay with M14 is 88.3 µM (inactive); in the assay with SF-268, 29 µM (inactive); with RXF 393, 25.8 µM (inactive); in the assay on UO-31, > 100 µM (inactive); in the assay with OVCAR-8 it was 84.7 µM (inactive); in the assay with MDA-N, 65.3 µM (inactive). Moreover, the GI50 was 40.6 µM (inactive) in the assay with MDA-MB-435; 20 µM (inactive) with RPMI-8226; 7.45 µM (inactive) in the assay with HL-60; 21.7 µM (inactive) in the assay on PC-3; 68.4 µM (inactive) in the assay on OVCAR-5; > 100 µM (inactive) in the assay with DU-145. In addition, the GI50 with NCI-H522 was 54.5 µM (inactive); with A549, 37.7 µM (inactive); in the assay with NCI-H226 it was 59.3 µM (inactive); in the assay with HOP-92, 44.9 µM (inactive); in the assay on HCT-15, 35.7 µM; in the assay with COLO 205 it was 33.2 µM (inactive). Further, the GI50 with BT-549 was > 100 µM (inactive); in the assay with UACC-257, 16.4 µM (inactive).

`O=C(NCCNCCNC(=O)c1cc(-c2ccccc2)nc2ccccc12)c1cc(-c2ccccc2)nc2ccccc12`: the GI50 with M14 was 1.6 µM (inactive); with SF-268, 2.84 µM (inactive); in the assay on RXF 393 it was 1.67 µM (inactive); in the assay with UO-31, 2.64 µM (inactive); with OVCAR-8 it was 2.04 µM (inactive); in the assay with MDA-N, 1.67 µM (inactive). Moreover, the GI50 with MDA-MB-435 is 1.82 µM (inactive); in the assay with RPMI-8226 it was 2.73 µM (inactive); in the assay with HL-60, 1.87 µM (inactive); in the assay with PC-3, 2.75 µM (inactive); with OVCAR-5, 2.17 µM (inactive); with DU-145, 2.38 µM (inactive). In addition, the GI50 in the assay with NCI-H522 was 1.93 µM (inactive); in the assay with A549 it was 3.37 µM (inactive); in the assay on NCI-H226, 2.91 µM (inactive); in the assay on HOP-92, 1.82 µM (inactive); with HCT-15, 2.92 µM; with COLO 205, 1.98 µM (inactive). Further, the GI50 with BT-549 is 7.91 µM (inactive); in the assay with UACC-257, 1.98 µM (inactive).

In the case of `O=C1N2CCc3c([nH]c4ccccc34)C23CC2CCCCC12S3` (configuration not stated), the GI50 in the assay on M14, in the assay with SF-268, with RXF 393, with UO-31, in the assay on OVCAR-8 and in the assay with MDA-N was > 100 µM (inactive) in each case. For the same compound, the GI50 in the assay with MDA-MB-435 is > 100 µM (inactive); in the assay on RPMI-8226, 48.8 µM (inactive); in the assay with HL-60 it was 95.5 µM (inactive); with PC-3 it was > 100 µM (inactive); in the assay on OVCAR-5, > 100 µM (inactive); in the assay on DU-145, > 100 µM (inactive). The GI50 in the assay on NCI-H522 is > 100 µM (inactive); with A549 it was > 100 µM (inactive); in the assay with NCI-H226, > 100 µM (inactive); with HOP-92, > 100 µM (inactive); with HCT-15, above 100 µM; in the assay with COLO 205 it was > 100 µM (inactive). The GI50 was > 100 µM (inactive) in the assay on BT-549 and 18.5 µM (inactive) with UACC-257.

Consider `CC1CC[C@@]2(OC1)OC1C[C@H]3[C@@H]4CC[C@H]5CC(OC6OC(CO)C(OC7OC(CO)C(O)C(O)C7OC7OC(CO)C(O)C(O)C7O)C(O)C6O)CCC5(C)[C@H]4CCC3(C)C1[C@@H]2C` (some centres not stated), for which the GI50 in the assay on M14 is 3.34 µM (inactive); with SF-268 it was 2.75 µM (inactive); in the assay on RXF 393, 1.05 µM (active); with UO-31, 0.993 µM (active); in the assay with OVCAR-8, 6.24 µM (inactive); with MDA-N, 2.86 µM (inactive). Moreover, the GI50 was 2.65 µM (inactive) with MDA-MB-435; 1.88 µM (inactive) with RPMI-8226; 4.97 µM (inactive) in the assay on HL-60; 0.838 µM (active) in the assay on PC-3; 2.25 µM (inactive) in the assay with OVCAR-5; 0.975 µM (active) in the assay with DU-145. Further, the GI50 was 1.63 µM (inactive) in the assay with NCI-H522; 2.1 µM (inactive) with A549; 1.34 µM (inactive) in the assay with NCI-H226; 5.2 µM (inactive) in the assay on HOP-92; 10.3 µM with HCT-15; 0.955 µM (active) with COLO 205. Moreover, the GI50 with BT-549 was 1.38 µM (inactive); in the assay on UACC-257, 4.31 µM (inactive).

As for `COc1ccn(CC(=O)c2cc3ccccc3[nH]2)c(=O)n1`, the GI50 in the assay on M14, in the assay with SF-268, in the assay on RXF 393, with UO-31, with OVCAR-8 and in the assay on MDA-N was > 100 µM (inactive) in each case. Moreover, the GI50 is > 100 µM (inactive) in the assay with MDA-MB-435; > 100 µM (inactive) in the assay on RPMI-8226; 39.2 µM (inactive) in the assay on HL-60; > 100 µM (inactive) in the assay on PC-3; > 100 µM (inactive) in the assay on OVCAR-5; > 100 µM (inactive) with DU-145. In addition, the GI50 is > 100 µM (inactive) in the assay with NCI-H522; > 100 µM (inactive) with A549; > 100 µM (inactive) with NCI-H226; 49.7 µM (inactive) in the assay with HOP-92; above 100 µM with HCT-15; > 100 µM (inactive) with COLO 205. The GI50 in the assay with BT-549 and in the assay with UACC-257 was > 100 µM (inactive) throughout.

Consider `Cc1c2ccccc2cc2nc3ccccc3n12`, for which the GI50 in the assay with M14, with SF-268, in the assay on RXF 393, in the assay with OVCAR-8, in the assay with MDA-N and with MDA-MB-435 was > 10 µM (inactive) throughout. In addition, the GI50 in the assay on RPMI-8226, in the assay with HL-60, in the assay with PC-3, in the assay on OVCAR-5, with DU-145 and in the assay on NCI-H522 was > 10 µM (inactive) each time. The GI50 was > 10 µM (inactive) in the assay with A549; > 10 µM (inactive) with NCI-H226; > 10 µM (inactive) in the assay with HOP-92; above 10 µM in the assay with HCT-15; > 10 µM (inactive) with COLO 205; > 10 µM (inactive) in the assay with BT-549. Besides, in the assay with UACC-257, the GI50 is > 10 µM (inactive).

For `COc1cc(/C=N/n2c(-c3ccccc3)n[nH]c2=O)cc(OC)c1OC`, the GI50 was 6.08 µM (inactive) with M14; 3.51 µM (inactive) in the assay on SF-268; 4.94 µM (inactive) with RXF 393; 5.71 µM (inactive) in the assay with UO-31; 4.81 µM (inactive) with OVCAR-8; 0.174 µM (active) in the assay on MDA-N. Moreover, the GI50 with MDA-MB-435 was 0.218 µM (active); with RPMI-8226 it was 1.38 µM (inactive); in the assay on HL-60 it was 0.518 µM (active); in the assay on PC-3, 2.81 µM (inactive); in the assay with OVCAR-5 it was 22.4 µM (inactive); with DU-145, 5.77 µM (inactive). Besides, the GI50 in the assay on NCI-H522 was 0.675 µM (active); in the assay on A549, 4.95 µM (inactive); in the assay on NCI-H226 it was > 41.3 µM (inactive); with HOP-92, 13.8 µM (inactive); in the assay on HCT-15 it was 0.708 µM; in the assay on BT-549, 2.13 µM (inactive). Besides, the GI50 with UACC-257 is > 100 µM (inactive).

As for `COc1ccc2c(c1)CCC(CN1CCN(CCOC(c3ccc(F)cc3)c3ccc(F)cc3)CC1)=C2`, the GI50 in the assay with M14 was 9.31 µM (inactive); with SF-268 it was 31.6 µM (inactive); with RXF 393, 11.2 µM (inactive); with OVCAR-8 it was 18.8 µM (inactive); in the assay on MDA-N it was 11.8 µM (inactive); in the assay on MDA-MB-435 it was 16.8 µM (inactive). Further, the GI50 with RPMI-8226 is 4.52 µM (inactive); in the assay with HL-60, 5.53 µM (inactive); in the assay on PC-3, 16.8 µM (inactive); with OVCAR-5, 23.1 µM (inactive); in the assay with DU-145, 19 µM (inactive); with NCI-H522, 13.9 µM (inactive). For the same compound, the GI50 is 27.5 µM (inactive) in the assay on A549; 13 µM (inactive) in the assay on NCI-H226; 16.1 µM (inactive) in the assay on HOP-92; 3.53 µM in the assay on HCT-15; 2.14 µM (inactive) in the assay on COLO 205; 13.6 µM (inactive) with BT-549. Further, the GI50 with UACC-257 was 9.18 µM (inactive).

Turning to `C#CCSC(C=C=C)P(=O)(OC(C)C)OC(C)C` (configuration not stated), the GI50 with M14 is > 100 µM (inactive); in the assay on SF-268 it was 90.8 µM (inactive); with RXF 393, > 100 µM (inactive); in the assay on UO-31, > 100 µM (inactive); in the assay on OVCAR-8 it was > 100 µM (inactive); in the assay with MDA-N it was > 100 µM (inactive). The GI50 is > 100 µM (inactive) in the assay with MDA-MB-435; 30.3 µM (inactive) in the assay with RPMI-8226; 38.1 µM (inactive) with HL-60; > 100 µM (inactive) with PC-3; > 100 µM (inactive) in the assay with OVCAR-5; > 100 µM (inactive) with DU-145. Besides, the GI50 in the assay on NCI-H522 was 23.3 µM (inactive); with A549, > 100 µM (inactive); with NCI-H226, > 100 µM (inactive); in the assay with HOP-92 it was > 100 µM (inactive); with HCT-15, 30.5 µM; in the assay on COLO 205 it was 58.5 µM (inactive). The GI50 was 26.4 µM (inactive) in the assay with BT-549 and > 100 µM (inactive) in the assay on UACC-257.

For `CC1(c2nc3ccccc3[nH]2)CCC(C(N)=O)C(C)(C)O1` (configuration not stated), the GI50 in the assay with M14, in the assay with SF-268, with RXF 393, in the assay with UO-31, in the assay on OVCAR-8 and with MDA-N was > 100 µM (inactive) each time. Also, the GI50 in the assay with MDA-MB-435, in the assay on RPMI-8226, in the assay with HL-60, with PC-3, with OVCAR-5 and in the assay on DU-145 was > 100 µM (inactive) in each case. Moreover, the GI50 in the assay with NCI-H522 was > 100 µM (inactive); in the assay on A549 it was > 100 µM (inactive); with NCI-H226, > 100 µM (inactive); with HOP-92 it was > 100 µM (inactive); in the assay with HCT-15, above 100 µM; in the assay with COLO 205, > 100 µM (inactive). Moreover, the GI50 in the assay on BT-549 and in the assay with UACC-257 was > 100 µM (inactive) in each case.
